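Method: 48-hour compound exposure of cells in 96-well plates, five concentrations, linear interpolation of endpoints. At the GI50, growth is halved. TGI: concentration producing complete growth inhibition.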
Assays:
Test in all cases: NCI-60 cell line screen, 48 h
[1] = tested on: HCT-116 colon
[2] = tested on: UACC-257 melanoma
[3] = tested on: SR leukemia
[4] = tested on: SNB-19 CNS
[5] = tested on: MALME-3M melanoma
[6] = tested on: SK-MEL-5 melanoma
[7] = tested on: OVCAR-4 ovarian
[8] = tested on: UACC-62 melanoma
[9] = tested on: MCF7 breast
[10] = tested on: DU-145 prostate

Question: What does the source list for `CNC12C3C4C1C1C2C3C41C(=O)N[C@H](C(=O)N(C)[C@H](C[C@@H](OC(C)=O)c1nc(C(=O)N[C@@H](Cc2ccccc2)C[C@H](C)C(=O)OC)cs1)C(C)C)C1CC1` (some centres undefined)?
Answer: GI50 [1]: 0.215 µM; TGI [1]: > 4.1 µM; GI50 [2]: 2.99 µM; TGI [2]: > 15 µM; GI50 [3]: 0.0179 µM; TGI [3]: > 7.82 µM; GI50 [4]: 0.679 µM; TGI [4]: > 15 µM; GI50 [5]: 0.504 µM; TGI [5]: > 15 µM; GI50 [6]: 0.155 µM; TGI [6]: 1.41 µM; GI50 [7]: 1.1 µM; TGI [7]: > 15 µM; GI50 [8]: 0.0921 µM; TGI [8]: 2.98 µM; GI50 [9]: 0.0405 µM; TGI [9]: > 15 µM; GI50 [10]: 0.317 µM; TGI [10]: > 3.68 µM

Question: What does the source list for `Cc1[nH]c(=O)nc(N/N=C/c2ccc(Cl)cc2)c1C(=O)Nc1ccc(Cl)cc1`?
Answer: TGI [1]: 17.1 µM; TGI [2]: > 94.6 µM; TGI [3]: > 100 µM; TGI [4]: > 15.8 µM; TGI [5]: 55.2 µM; TGI [6]: 48.4 µM; TGI [7]: 22.4 µM; TGI [8]: > 100 µM; TGI [9]: > 100 µM; TGI [10]: > 100 µM

Question: Which GI50 [1] does the source give for `Cn1ccc2c3c(=O)cc[nH]c3ccc21` here?
Answer: The GI50 was greater than 100 µM.

Question: What about the TGI [1] of the same compound?
Answer: The TGI was greater than 100 µM.

Question: What about the GI50 [2] of the same compound?
Answer: The GI50 was greater than 100 µM.

Question: And the TGI [2]?
Answer: Its TGI is greater than 100 µM.

Question: And the GI50 [3]?
Answer: The GI50 was greater than 100 µM.

Question: And the TGI [3]?
Answer: The TGI was greater than 100 µM.

Question: What about the GI50 [4] of the same compound?
Answer: Its GI50 is greater than 100 µM.

Question: What about the TGI [4] of the same compound?
Answer: Its TGI is greater than 100 µM.

Question: And the GI50 [5]?
Answer: The GI50 was greater than 100 µM.

Question: And the TGI [5]?
Answer: Its TGI is greater than 100 µM.

Question: And the GI50 [6]?
Answer: Its GI50 is greater than 100 µM.

Question: And the TGI [6]?
Answer: The TGI was greater than 100 µM.

Question: What about the GI50 [7] of the same compound?
Answer: Its GI50 is greater than 100 µM.

Question: And the TGI [7]?
Answer: Its TGI is greater than 100 µM.

Question: And the GI50 [8]?
Answer: Its GI50 is greater than 100 µM.

Question: What about the TGI [8] of the same compound?
Answer: The TGI was greater than 100 µM.

Question: What about the GI50 [9] of the same compound?
Answer: The GI50 was greater than 100 µM.

Question: What about the TGI [9] of the same compound?
Answer: Its TGI is greater than 100 µM.

Question: What about the GI50 [10] of the same compound?
Answer: The GI50 was greater than 100 µM.

Question: And the TGI [10]?
Answer: The TGI was greater than 100 µM.

Question: What does the source list for `C[n+]1cc2cc3c(cc2c2ccccc21)OCO3`?
Answer: GI50 [1]: 3.58 µM; TGI [1]: > 100 µM; GI50 [2]: 3.85 µM; TGI [2]: 14 µM; GI50 [3]: 3.78 µM; TGI [3]: > 100 µM; GI50 [4]: 1.64 µM; GI50 [5]: 1.86 µM; TGI [5]: 5.16 µM; GI50 [6]: 2.71 µM; TGI [6]: 14.3 µM; GI50 [7]: 3.78 µM; TGI [7]: 36 µM; GI50 [8]: 3.97 µM; TGI [8]: 16.4 µM; GI50 [9]: 2.61 µM; TGI [9]: 17.3 µM; GI50 [10]: 4.49 µM; TGI [10]: 25.9 µM

Question: What does the source list for `N=C1N=C(N)S/C1=C\c1ccc2ncccc2c1`?
Answer: GI50 [1]: > 25 µM; TGI [1]: > 25 µM; GI50 [2]: > 25 µM; TGI [2]: > 25 µM; GI50 [3]: > 25 µM; TGI [3]: > 25 µM; GI50 [4]: > 25 µM; TGI [4]: > 25 µM; GI50 [5]: > 25 µM; TGI [5]: > 25 µM; GI50 [6]: > 25 µM; TGI [6]: > 25 µM; GI50 [7]: > 25 µM; TGI [7]: > 25 µM; GI50 [8]: > 25 µM; TGI [8]: > 25 µM; GI50 [9]: > 25 µM; TGI [9]: > 25 µM; GI50 [10]: > 25 µM; TGI [10]: > 25 µM

Question: What does the source list for `CC(=O)[O][Hg][CH2]C1(C)COC(C)([CH2][Hg][O]C(C)=O)CO1` (centres undefined)?
Answer: GI50 [1]: 1.22 µM; TGI [1]: 6.58 µM; GI50 [2]: 4.51 µM; TGI [2]: 10.5 µM; GI50 [3]: 0.607 µM; TGI [3]: 3.59 µM; GI50 [4]: 16.1 µM; TGI [4]: 30 µM; GI50 [5]: 4.66 µM; TGI [5]: 9.23 µM; GI50 [6]: 13.4 µM; TGI [6]: 26.5 µM; GI50 [7]: 26.4 µM; TGI [7]: 74.4 µM; GI50 [8]: 4.94 µM; TGI [8]: 9.26 µM; GI50 [9]: 0.646 µM; TGI [9]: 2.32 µM; GI50 [10]: 10.4 µM; TGI [10]: 23.1 µM

Question: How did the GI50 [1] turn out when `O=C(Nc1nc(-c2ccccc2)cs1)c1cc(O)c(O)c(O)c1` was run?
Answer: Its GI50 is 2.97 µM.

Question: What about the TGI [1] of the same compound?
Answer: The TGI was 16.5 µM.

Question: What about the GI50 [2] of the same compound?
Answer: Its GI50 is 7.84 µM.

Question: What about the TGI [2] of the same compound?
Answer: Its TGI is 52.1 µM.

Question: What about the GI50 [3] of the same compound?
Answer: The GI50 was 1.62 µM.

Question: What about the TGI [3] of the same compound?
Answer: The TGI was 19.9 µM.

Question: And the GI50 [4]?
Answer: The GI50 was 2.61 µM.

Question: What about the TGI [4] of the same compound?
Answer: Its TGI is greater than 100 µM.

Question: And the GI50 [5]?
Answer: Its GI50 is 8.86 µM.

Question: What about the TGI [5] of the same compound?
Answer: The TGI was 71.1 µM.

Question: What about the GI50 [6] of the same compound?
Answer: The GI50 was 3.6 µM.

Question: What about the TGI [6] of the same compound?
Answer: The TGI was 20.7 µM.

Question: What about the GI50 [7] of the same compound?
Answer: The GI50 was 2.22 µM.

Question: What about the TGI [7] of the same compound?
Answer: Its TGI is 57.3 µM.

Question: And the GI50 [8]?
Answer: Its GI50 is 3.02 µM.

Question: And the TGI [8]?
Answer: The TGI was 16.5 µM.

Question: What about the GI50 [9] of the same compound?
Answer: The GI50 was 4.73 µM.

Question: What about the TGI [9] of the same compound?
Answer: The TGI was greater than 100 µM.

Question: What about the GI50 [10] of the same compound?
Answer: Its GI50 is 6.41 µM.

Question: And the TGI [10]?
Answer: The TGI was greater than 100 µM.

Question: What does the source list for `NC(=S)N/N=C/c1ccc(OC(=O)COc2ccccc2)cn1`?
Answer: GI50 [1]: 5.98 µM; TGI [1]: > 100 µM; GI50 [2]: 14.7 µM; TGI [2]: 88.9 µM; GI50 [3]: 0.596 µM; TGI [3]: > 100 µM; GI50 [4]: 28.5 µM; TGI [4]: > 100 µM; GI50 [5]: 11.2 µM; TGI [5]: > 100 µM; GI50 [6]: 3.12 µM; TGI [6]: 29.1 µM; GI50 [7]: 3.39 µM; TGI [7]: > 100 µM; GI50 [8]: 4.67 µM; TGI [8]: > 100 µM; GI50 [9]: 2.76 µM; TGI [9]: > 100 µM; GI50 [10]: 2.72 µM; TGI [10]: 8.96 µM

— PubChem BioAssay (NCI)
